Experimental data as given in patent publication US20240009175A9, “TETRAZOLE DERIVATIVES” (Merck Patent GmbH, priority 2020, published 2024).

Legend:
human rec ACSS2 = human rec ACSS2 (Homo sapiens (Human), UniProt Q9NR19); assay: Biochemical activity ACSS2 assay (AMP-Glo); details: human recombinant ACSS2, AMP-Glo, 180 min at 37° C.
Summary of the method: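 1 nM C-term myc-tagged recombinant human ACSS2 with 100 μM ATP, 100 μM Coenzyme A and 500 μM acetate (final concentrations), pH 7.5, 180 min at 37° C, compound from 30 μM over 10 concentrations. Released AMP quantified by AMP-Glo luminescence; zero set with 5 μM reference ACSS2 inhibitor, IC50 derived.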

ACSS2 = ACSS2 (Homo sapiens (Human), UniProt Q9NR19); assay: Cellular assay of 14C acetate incorporation into histones (IC50 ACSS2 cellular histone); assay type: cell-based; details: HCT-15 cells
Summary of the method: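 HCT-15 cells preincubated 1 h with compound (0.25% DMSO), then pulsed 3 h with 14C-acetate in full DMEM/10% FBS. Histones acid-extracted (0.2 M HCl, overnight, 4 °C) after Triton lysis in sodium butyrate buffer; incorporated 14C counted by scintillation (CPM) to give IC50.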

CHO-K1 cells = assay: Micronucleus assay (MNT) in vitro; assay type: cell-based; design: key: A: negative, putative negative (micronuclei detected beyond threshold of 60% cyctotoxicity); B: positive; details: 24 hrs treatment, 0.2 μM to 100 μM

ACSS2, sequence (Q9NR19 whole entry): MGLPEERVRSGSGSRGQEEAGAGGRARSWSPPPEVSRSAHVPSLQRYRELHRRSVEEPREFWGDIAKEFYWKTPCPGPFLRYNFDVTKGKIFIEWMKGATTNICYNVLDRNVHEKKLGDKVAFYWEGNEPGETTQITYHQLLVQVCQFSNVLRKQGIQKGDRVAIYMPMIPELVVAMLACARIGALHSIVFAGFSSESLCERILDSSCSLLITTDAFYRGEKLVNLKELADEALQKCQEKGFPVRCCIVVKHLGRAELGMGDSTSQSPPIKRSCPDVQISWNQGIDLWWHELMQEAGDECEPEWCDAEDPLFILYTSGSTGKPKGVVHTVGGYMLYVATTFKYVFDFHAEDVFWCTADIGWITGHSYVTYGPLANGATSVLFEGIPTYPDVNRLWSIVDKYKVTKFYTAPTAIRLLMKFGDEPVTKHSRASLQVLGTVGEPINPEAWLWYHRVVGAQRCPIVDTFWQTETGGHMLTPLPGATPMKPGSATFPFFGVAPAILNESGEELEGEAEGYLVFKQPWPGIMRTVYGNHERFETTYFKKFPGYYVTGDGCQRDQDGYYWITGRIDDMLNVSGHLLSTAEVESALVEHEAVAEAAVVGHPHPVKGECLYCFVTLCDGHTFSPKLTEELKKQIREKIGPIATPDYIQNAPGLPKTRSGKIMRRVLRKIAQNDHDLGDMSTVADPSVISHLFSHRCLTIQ
human rec ACSS2, sequence (Q9NR19 whole entry): as above

CCc1c(C(O)(c2ccccc2)c2ccccc2)nc2cc(Cl)c(-c3nnn[nH]3)cn12 [Compound 9, [7-Chloro-3-ethyl-6-(1H-tetrazol-5-yl)-imidazo[1,2-a]pyridin-2-yl]-diphenyl-methanol]
IC50 (human rec ACSS2): 1 to 10 nM
IC50 (ACSS2): 100 to 10000 nM
MNT (CHO-K1 cells): A

CCn1c(C(O)(c2cccs2)c2cccs2)nc2nc(OC)c(-c3nnn[nH]3)cc21 [Compound 38, [1-ethyl-5-methoxy-6-(1H-1,2,3,4-tetrazol-5-yl)-1H-imidazo[4,5-b]pyridin-2-yl]bis(thiophen-2-yl)methanol]
IC50 (human rec ACSS2): 1 to 10 nM
IC50 (ACSS2): 100 to 10000 nM
MNT (CHO-K1 cells): A

CCc1c(C(O)(c2ccccc2)c2ccccc2)nc2ccc(-c3nnn[nH]3)cn12 [Compound 4, [3-Ethyl-6-(1 H-tetrazol-5-yl)-imidazo[1,2-a]pyridin-2-yl]-diphenyl-methanol]
IC50 (human rec ACSS2): 10 to 100 nM
IC50 (ACSS2): 100 to 10000 nM
MNT (CHO-K1 cells): A

CCc1c(C(O)(c2ccccc2)c2ccccc2)nc2cc(F)c(-c3nnn[nH]3)cn12 [Compound 3, [3-Ethyl-7-fluoro-6-(1H-tetrazol-5-yl)-imidazo[1,2-a]pyridin-2-yl]-diphenyl-methanol]
IC50 (human rec ACSS2): 1 to 10 nM
IC50 (ACSS2): 100 to 10000 nM
MNT (CHO-K1 cells): A

CCc1c(C(O)(c2ccccc2F)c2ccccc2F)nc2cc(OC)c(-c3nnn[nH]3)cn12 [Compound 6, [3-Ethyl-7-methoxy-6-(1H-tetrazol-5-yl)-imidazo[1,2-a]pyridin-2-yl]-bis-(2-fluoro-phenyl)-methanol]
IC50 (human rec ACSS2): 1 to 10 nM
IC50 (ACSS2): 1 to 10 nM
MNT (CHO-K1 cells): A

CCc1c(C(O)(c2ccccc2)c2ccccc2)nc2cc(OC)c(-c3nnn[nH]3)cn12 [Compound 2, [3-Ethyl-7-methoxy-6-(1H-tetrazol-5-yl)-imidazo[1,2-a]pyridin-2-yl]-diphenyl-methanol]
IC50 (human rec ACSS2): 1 to 10 nM
IC50 (ACSS2): 1 to 10 nM
MNT (CHO-K1 cells): A

CCn1c(C(O)(c2ccccc2)c2ccccc2)nc2nc(C)c(-c3nnn[nH]3)cc21 [Compound 62, [1-ethyl-5-methyl-6-(1H-1,2,3,4-tetrazol-5-yl)-1H-imidazo[4,5-b]pyridin-2-yl]diphenylmethanol]
IC50 (human rec ACSS2): 1 to 10 nM
IC50 (ACSS2): 100 to 10000 nM
MNT (CHO-K1 cells): A

CCn1c(C(O)(c2ccccc2)c2ccccc2)nc2nc(Cl)c(-c3nnn[nH]3)cc21 [Compound 51, [5-chloro-1-ethyl-6-(1H-1,2,3,4-tetrazol-5-yl)-1H-imidazo[4,5-b]pyridin-2-yl]diphenylmethanol]
IC50 (human rec ACSS2): 1 to 10 nM
IC50 (ACSS2): 10 to 100 nM
MNT (CHO-K1 cells): A

CCc1c(C(O)(c2ccccc2F)c2ccccc2F)nn2cc(OC)c(-c3nnn[nH]3)cc12 [Compound 19, [3-Ethyl-6-methoxy-5-(1H-tetrazol-5-yl)-pyrazolo[1,5-a]pyridin-2-yl]-bis-(2-fluoro-phenyl)-methanol]
IC50 (human rec ACSS2): 1 to 10 nM
IC50 (ACSS2): 10 to 100 nM
MNT (CHO-K1 cells): A

CCn1c(C(O)(c2ccccc2)c2ccccc2)nc2ncc(-c3nnn[nH]3)cc21 [Compound 60, [1-ethyl-6-(1H-1,2,3,4-tetrazol-5-yl)-1H-imidazo[4,5-b]pyridin-2-yl]diphenylmethanol]
IC50 (human rec ACSS2): 10 to 100 nM
IC50 (ACSS2): 100 to 10000 nM
MNT (CHO-K1 cells): A

CCc1c(C(O)(c2ccccc2)c2ccccn2)nc2cc(OC)c(-c3nnn[nH]3)cn12 (single isomer, unassigned) [Compound 11, [3-Ethyl-7-methoxy-6-(1H-tetrazol-5-yl)-imidazo[1,2-a]pyridin-2-yl]-phenyl-pyridin-2-yl-methanol]
IC50 (human rec ACSS2): 1 to 10 nM
IC50 (ACSS2): 10 to 100 nM
MNT (CHO-K1 cells): A

CCc1c(C(O)(c2ccccc2F)c2ccccc2F)nc2cc(Cl)c(-c3nnn[nH]3)cn12 [Compound 5, [7-Chloro-3-ethyl-6-(1H-tetrazol-5-yl)-imidazo[1,2-a]pyridin-2-yl]-bis-(2-fluoro-phenyl)-methanol]
IC50 (human rec ACSS2): 1 to 10 nM
IC50 (ACSS2): 100 to 10000 nM
MNT (CHO-K1 cells): A

CCn1c(C(O)(c2ccccc2)c2ncccn2)nc2nc(OC)c(-c3nnn[nH]3)cc21 (racemic) [Compound 37, [1-ethyl-5-methoxy-6-(1H-1,2,3,4-tetrazol-5-yl)-1H-imidazo[4,5-b]pyridin-2-yl](phenyl)(pyrimidin-2-yl)methanol]
IC50 (human rec ACSS2): 1 to 10 nM
IC50 (ACSS2): 1 to 10 nM
MNT (CHO-K1 cells): A

COc1nc2nc(C(O)(c3ccccc3)c3ccccc3)n(CCO)c2cc1-c1nnn[nH]1 [Compound 34, 2-[2-(hydroxy-diphenylmethyl)-5-methoxy-6-(1H-1,2,3,4-tetrazol-5-yl)-1H-imidazo[4,5-b]pyridin-1-yl]ethan-1-ol]
IC50 (human rec ACSS2): 1 to 10 nM
IC50 (ACSS2): 100 to 10000 nM
MNT (CHO-K1 cells): A

CCn1c(C(O)(c2ccccc2)c2ccccn2)nc2nc(OC)c(-c3nnn[nH]3)cc21 (racemic) [Compound 50, [1-ethyl-5-methoxy-6-(1H-1,2,3,4-tetrazol-5-yl)-1H-imidazo[4,5-b]pyridin-2-yl](phenyl)(pyridin-2-yl)methanol]
IC50 (human rec ACSS2): 1 to 10 nM
IC50 (ACSS2): 0.01 to 1 nM
MNT (CHO-K1 cells): A

CCc1c(C(O)(c2ccccc2)c2ccccc2)nn2cc(OC)c(-c3nnn[nH]3)cc12 [Compound 22, [3-Ethyl-6-methoxy-5-(1H-tetrazol-5-yl)-pyrazolo[1,5-a]pyridin-2-yl]-diphenyl-methanol]
IC50 (human rec ACSS2): 1 to 10 nM
IC50 (ACSS2): 1 to 10 nM
MNT (CHO-K1 cells): A

CCn1c(C(O)(c2ccccc2F)c2ccccc2F)nc2nc(OC)c(-c3nnn[nH]3)cc21 [Compound 57, [1-ethyl-5-methoxy-6-(1H-1,2,3,4-tetrazol-5-yl)-1H-imidazo[4,5-b]pyridin-2-yl]bis(2-fluorophenyl)methanol]
IC50 (human rec ACSS2): 0.01 to 1 nM
IC50 (ACSS2): 1 to 10 nM
MNT (CHO-K1 cells): A

CCn1c(C(O)(c2ccccc2)c2ccccn2)nc2nc(OC)c(-c3nnn[nH]3)cc21 (single isomer, unassigned) [Compound 40, [1-ethyl-5-methoxy-6-(1H-1,2,3,4-tetrazol-5-yl)-1H-imidazo[4,5-b]pyridin-2-yl](phenyl)(pyridin-2-yl)methanol]
IC50 (human rec ACSS2): 1 to 10 nM
IC50 (ACSS2): 0.01 to 1 nM
MNT (CHO-K1 cells): A

CCn1c(C(O)(c2ccccc2)c2ccccc2)nc2nc(OC)c(-c3nnn[nH]3)cc21 [Compound 58, [1-ethyl-5-methoxy-6-(1H-1,2,3,4-tetrazol-5-yl)-1H-imidazo[4,5-b]pyridin-2-yl]diphenylmethanol]
IC50 (human rec ACSS2): 0.01 to 1 nM
IC50 (ACSS2): 0.01 to 1 nM
MNT (CHO-K1 cells): A

CCc1c(C(O)(c2ccccc2)c2ccccc2)nn2cc(Cl)c(-c3nnn[nH]3)cc12 [Compound 21, [6-Chloro-3-ethyl-5-(1H-tetrazol-5-yl)-pyrazolo[1,5-a]pyridin-2-yl]-diphenyl-methanol]
IC50 (human rec ACSS2): 1 to 10 nM
IC50 (ACSS2): 10 to 100 nM
MNT (CHO-K1 cells): A

CCn1c(C(O)(c2ccccc2)c2cccs2)nc2nc(OC)c(-c3nnn[nH]3)cc21 (racemic) [Compound 35, [1-ethyl-5-methoxy-6-(1H-1,2,3,4-tetrazol-5-yl)-1H-imidazo[4,5-b]pyridin-2-yl](phenyl)(thiophen-2-yl)methanol]
IC50 (human rec ACSS2): 1 to 10 nM
IC50 (ACSS2): 1 to 10 nM
MNT (CHO-K1 cells): A

CCn1c(C(O)(c2ccccc2F)c2ccccc2F)nc2nc(C)c(-c3nnn[nH]3)cc21 [Compound 59, [1-ethyl-5-methyl-6-(1H-1,2,3,4-tetrazol-5-yl)-1H-imidazo[4,5-b]pyridin-2-yl]bis(2-fluorophenyl)methanol]
IC50 (human rec ACSS2): 1 to 10 nM
IC50 (ACSS2): 100 to 10000 nM
MNT (CHO-K1 cells): A

CCn1c(C(O)(c2ccccc2)c2ccccc2)nc2ccc(C(=O)NC[C@@H](C)O)cc21 [Reference Compound, 3-Ethyl-2-[hydroxy(diphenyl)methyl]-N-[(2R)-2-hydroxypropyl]benzimidazole-5-carboxamide, reference compound]
IC50 (human rec ACSS2): 100 to 10000 nM
IC50 (ACSS2): 0.01 to 1 nM
MNT (CHO-K1 cells): B
